Assay: xn = mol fraction of the nth substance listed

Brc1ccccc1 + CCCCCO
293.15 K, 101.33 kPa
Conditions	viscosity [mPa·s]
x2 = 0.0631	1.14
x2 = 0.1715	1.212
x2 = 0.2092	1.252
x2 = 0.2807	1.335
x2 = 0.3259	1.398
x2 = 0.3831	1.512
x2 = 0.4182	1.57
x2 = 0.4909	1.716
x2 = 0.5969	2.011
x2 = 0.6886	2.346
x2 = 0.7544	2.636
x2 = 0.8796	3.294

C1=C[C@H]2[C@@H](C1)[C@H]1C=C[C@@H]2C1 + CCCCCO
viscosity [mPa·s], 101.2 kPa
Conditions	x1 = 0.1058	x1 = 0.1953	x1 = 0.3	x1 = 0.4005	x1 = 0.498	x1 = 0.5999	x1 = 0.7018	x1 = 0.8009	x1 = 0.8999
293.15 K	3.719	3.558	3.422	3.307	3.279	3.283	3.368	3.522	3.876
303.15 K	2.86	2.734	2.63	2.569	2.547	2.575	2.648	2.784	3.037
313.15 K	2.201	2.126	2.062	2.032	2.035	2.075	2.14	2.259	2.466

Ic1ccccc1 + CCCCCO
293.15 K, 101.33 kPa
Conditions	viscosity [mPa·s]
x2 = 0.1	1.665
x2 = 0.2	1.694
x2 = 0.25	1.709
x2 = 0.3834	1.864
x2 = 0.4289	1.94
x2 = 0.5101	2.098
x2 = 0.7761	2.915
x2 = 0.8055	3.043
x2 = 0.8184	3.1
x2 = 0.8554	3.273
x2 = 0.9419	3.7
x2 = 0.975	3.867

C#Cc1ccccc1 + CCCCCOC(C)=O
Conditions	viscosity [mPa·s]
298.15 K, 101 kPa, x1 = 0.0691	0.791

C1COCCO1 + CCCCO
298.15 K, 101 kPa
Conditions	viscosity [mPa·s]
x1 = 0.0346	2.264
x1 = 0.127	1.806
x1 = 0.5	1.272
x1 = 0.5917	1.099
x1 = 0.6726	1.074
x1 = 0.7123	1.07
x1 = 0.768	1.073
x1 = 0.8002	1.078
x1 = 0.8852	1.091
x1 = 0.9472	1.126

CC(=O)OCC(COC(C)=O)OC(C)=O + CCCCO
viscosity [mPa·s], 101.33 kPa
Conditions	x1 = 0.1	x1 = 0.2	x1 = 0.3	x1 = 0.4	x1 = 0.5	x1 = 0.6	x1 = 0.7	x1 = 0.8	x1 = 0.9
298 K	2.4	2.7	3.12	3.71	4.5	5.57	6.99	9.02	11.93
303 K	2.11	2.34	2.69	3.17	3.82	4.65	5.79	7.34	9.49
308 K	1.87	2.06	2.36	2.75	3.27	3.96	4.86	6.07	7.72
313 K	1.67	1.83	2.07	2.4	2.84	3.41	4.15	5.1	6.39

Reference: the CheMixHub viscosity set
